The values below come from article PMC11725774 (Cancer Research Communications, 2025).

Each structure is given as a SMILES string. Like-named read-outs stand apart in the source and are kept apart here.

In one experiment the test system is TUS/R line 4 (MOLM-14). Description: Growth inhibition of TUS-resistant subline. The class given is cell-based, human. The settings on record: Homo sapiens, MOLM-14, read-out: GI50 (nM) TUS/R line 4; mean ± SEM (Supplementary Table 6).
For the next experiment, the system named is TUS/R line 3 (MOLM-14). Description: Growth inhibition of TUS-resistant subline. The class given is cell-based, human. Conditions: Homo sapiens, MOLM-14, read-out: GI50 (nM) TUS/R line 3; mean ± SEM (Supplementary Table 6).
In the next experiment the test system is MV-4-11 cells. Put plainly: Growth inhibition of AML cell line. Conditions: Homo sapiens, MV4-11. The class given is cell-based, human. The method, then: (§1) MV-4-11 cells expressing NRAS^G12D were prepared by transduction with a lentiviral vector encoding the NRAS^G12D mutation. Assays using a panel of parental Ba/F3 into which an additional copy of either WT or a mutant form of FLT3 was introduced were performed at Kyinno Biotechnology Co., Ltd. All cell lines were short tandem repeat authenticated at ATCC or at DSMZ when originally obtained, and no further authentication was done after receipt of the cells in the laboratory.
(§2) Assays using Ba/F3 cells expressing WT and mutant forms of FLT3 were performed by Kyinno Biotechnology. The cells were cultured in the medium recommended by the source for each cell line. Growth inhibition assays were performed using either Cell Titer 96 Aqueous One Solution Cell Proliferation assay (Promega, # G3581) or CCK8 (Dojindo, # CK-04). […] IC50 values were determined from growth inhibition curves fitted using GraphPad Prism and a nonlinear regression model with sigmoidal dose response. Unless otherwise indicated, data are presented as mean ± SEM.

The subject of a further experiment is MOLM-14 cells (parental). Description: Growth inhibition of AML cell line. The class given is cell-based, human. The settings on record: Homo sapiens, MOLM-14. The method, then:
as §1, §2

Another experiment has as its target FLT3 D835Y (Homo sapiens, UniProt P36888, D835Y). Description: Biochemical enzyme activity screening assay. Conditions: kinase FLT3 D835Y; mean ± SD.
Experiment [1] relates to p-JAK1, p-JAK2, p-STAT3, p-STAT5 in MOLM-14 cells cocultured with HS-5 cells. Description: HS-5 stromal coculture Western blot. In kind it is cell-based, human. Conditions: concentrations <1 μmol/L; MOLM-14 cocultured with HS-5. On the procedure:
Cells were treated as described in respective Results sections and then lysed with RIPA buffer. Western blot analyses were performed with antibodies capable of detecting both total and phosphorylated forms of each kinase purchased from commercial sources. Information on the antibodies used is provided in the Supplementary Materials section.
HS-5 cells were obtained from ATCC. The HS-5 stromal cells (5 × 10^5 cells/well) were seeded into six-well plates, and 24 hours later, MOLM-14 cells (1 × 10^6 cells/well) were seeded into the same plate and then cultured for 48 hours. Cultures were then exposed to test drugs for 2 hours, harvested, and lysates were prepared for Western blotting. For stimulation studies, MOLM-14 or KG-1a cells were seeded at 5.0 to 6.0 × 10^6 cells/well into six-well plates in 2 mL medium. Cells were stimulated with 500 μg/mL fibrinogen (Sigma-Aldrich, Catalog # F3879) for 1 hour at 37°C. Alternatively, they were treated with 10 μg/mL IgG (Invitrogen, Catalog # 31154) for 10 minutes on ice followed by IgG cross-linking with 1 μg/mL anti–human IgG antibody for 10 minutes on ice. After these incubations, the media were removed and the cells were washed with cold PBS, lysed, and analyzed by Western blotting.

Another experiment relates to Ba/F3 cells FLT3 WT. Put plainly: Growth inhibition of Ba/F3 cells. The class given is cell-based, murine. Conditions: Mus musculus, BaF3; Ba/F3 FLT3 WT; mean ± SD; read-out: GI50. On the procedure: as §1, §2
The test system of experiment [2] is Ba/F3 cells FLT3 ITD/D835Y. Description: Growth inhibition of Ba/F3 cells. The class given is cell-based, murine. Conditions: Mus musculus, BaF3; Ba/F3 FLT3 ITD/D835Y; mean ± SD; read-out: GI50. The method, then:
as §1, §2

Experiment [3] concerns Ba/F3 cells FLT3 ITD/F691L. Description: Growth inhibition of Ba/F3 cells. In kind it is cell-based, murine. Conditions: Mus musculus, BaF3; Ba/F3 FLT3 ITD/F691L; mean ± SD; read-out: GI50. On the procedure: as §1, §2
The next experiment has as its system Ba/F3 cells FLT3 ITD. Description: Growth inhibition of Ba/F3 cells. In kind it is cell-based, murine. The settings on record: Mus musculus, BaF3; Ba/F3 FLT3 ITD; mean ± SD; read-out: GI50. The method, then:
as §1, §2

Another experiment relates to Ba/F3 cells FLT3 D835Y. Put plainly: Growth inhibition of Ba/F3 cells. The settings on record: Mus musculus, BaF3; Ba/F3 FLT3 D835Y; mean ± SD; read-out: GI50. The class given is cell-based, murine. On the procedure: as §1, §2
The subject of experiment [4] is MV-4-11 NRAS G12D Clone 1. Put plainly: Growth inhibition of NRAS G12D clone. In kind it is cell-based, human. The settings on record: Homo sapiens, MV4-11; MV-4-11 NRAS G12D; mean ± SEM. On the procedure:
as §1, §2

Experiment [5] deals with MV-4-11 NRAS G12D Clone 15. Put plainly: Growth inhibition of NRAS G12D clone. In kind it is cell-based, human. Conditions: Homo sapiens, MV4-11; MV-4-11 NRAS G12D; mean ± SEM. The method, then: as §1, §2
The subject of experiment [6] is MV-4-11 NRAS G12D Clone 4. Put plainly: Growth inhibition of NRAS G12D clone. Conditions: Homo sapiens, MV4-11; MV-4-11 NRAS G12D, high expression; mean ± SEM; read-out: GI50 (nM) Clone 4. In kind it is cell-based, human. On the procedure:
as §1, §2

For the next experiment, the system named is MOLM-13 cells. Put plainly: Growth inhibition of AML cell line. In kind it is cell-based. Conditions: Homo sapiens, mean ± SD. On the procedure: as §1, §2

As to `CCc1nc(C(N)=O)c(Nc2ccc(N3CCC(N4CCN(C)CC4)CC3)c(OC)c2)nc1NC1CCOCC1` [Gilteritinib, gilteritinib], the GI50 was 128 nM in the experiment with TUS/R line 4 (MOLM-14); 118 nM with TUS/R line 3 (MOLM-14); 2 ± 0.2 nM with MV-4-11 cells (MV-4-11, mean ± SD (Supplementary Table 4), read-out: GI50); 2.4 ± 0.7 nM with MV-4-11 cells (mean ± SEM (Supplementary Table 7), read-out: GI50 (nM) Parental (MV-4-11)); 8.6 nM in the experiment with MOLM-14 cells (parental) (mean ± SEM (Supplementary Table 6), read-out: GI50 (nM) Parental MOLM-14 (converted)); 6.1 ± 2.8 nM with MOLM-14 cells (parental) (mean ± SD (Supplementary Table 4), read-out: GI50). Also, the GI50 stood at 0.5 ± 0.1 nM at FLT3 D835Y; 7 ± 1.5 nM in the experiment on Ba/F3 cells FLT3 WT; 4.4 ± 0.6 nM in experiment [2]; 33 ± 6.2 nM in [3]; 1.2 ± 0.2 nM with Ba/F3 cells FLT3 ITD; 2.3 ± 0.7 nM in the experiment with Ba/F3 cells FLT3 D835Y. Also, the GI50 was 3.3 ± 0.7 nM in experiment [4], 5.6 ± 1.1 nM in experiment [5], 51 ± 12.2 nM in experiment [6] and 8.4 ± 2.9 nM with MOLM-13 cells. In experiment [1], the “inhibition of p-JAK1, p-JAK2, p-STAT3, or p-STAT5” value is recorded as “Neither TUS nor gilteritinib inhibited”.
